From patent US5290926A, “Isolated DNA Encoding plant histidinol dehydrogenase” (Ciba-Geigy Corporation, priority 1990, dated 1994)
Read-outs that look alike come from different tables or passages of the source.

T1: histidinol dehydrogenase from cabbage (Brassica oleracea var. capitata, UniProt P24226)
T1 construct: Spring cabbage heads are homogenized using a kitchen mixer; from tissue; host or cells: mature spring cabbage heads
T1 sequence (P24226 32-469): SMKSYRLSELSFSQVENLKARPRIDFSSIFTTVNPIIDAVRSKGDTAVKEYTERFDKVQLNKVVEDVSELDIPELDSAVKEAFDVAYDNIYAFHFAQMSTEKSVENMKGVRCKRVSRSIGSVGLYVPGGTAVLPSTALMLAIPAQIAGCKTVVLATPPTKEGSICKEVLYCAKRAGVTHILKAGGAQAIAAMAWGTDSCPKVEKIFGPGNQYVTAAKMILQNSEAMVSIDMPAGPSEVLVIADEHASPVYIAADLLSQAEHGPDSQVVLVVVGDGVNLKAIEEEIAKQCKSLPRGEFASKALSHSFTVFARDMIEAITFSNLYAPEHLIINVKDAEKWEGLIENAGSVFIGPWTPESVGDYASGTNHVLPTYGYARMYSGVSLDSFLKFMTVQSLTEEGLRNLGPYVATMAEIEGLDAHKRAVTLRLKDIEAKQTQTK

B1: histidinol dehydrogenase from cabbage (Brassica oleracea var. capitata) (protein)
chain: T1 sequence (P24226 32-469)
notes: Spring cabbage heads are homogenized using a kitchen mixer; from tissue; host or cells: mature spring cabbage heads

Legend:
[1] = molecular target: T1, histidinol dehydrogenase from cabbage; assay: Histidinol dehydrogenase enzyme assay (spectrophotometric, NAD+ reduction at 340 nm); assay type: biochemical; conditions: for Relative Activity: metal ion 0.5 mM, activity after 3 min reaction time, None = 100
Method: (§1) The enzyme activity is assayed spectrophotometrically by measuring the increase in absorbence at 340 nm due to the reduction of NAD+in a Hitachi U-3120 spectrophotomer. The reaction mixture contained 150 mM Gly/NaOH buffer, pH 9.2, 0.5 mM, MnCl , 2 mM NAD+, 5 mM histidinol, and 2-5 mU of enzyme sample in total volume of 0.5 ml. The reaction is started with the addition of histidinol, and incubated at 30° C. A reference sample containing water instead of histidinol is always run. One unit of enzyme catalyzes the formation of 2 μmol of NADH per min under the assay conditions.
as §1, with “absorbance” for “absorbence”, “spectrophotometer.” for “spectrophotomer.”, “pH9.2,” for “pH 9.2,”, “MnCl2,” for “MnCl ,”, “NAD +,” for “NAD+,”, “catalyzing” for “catalyzes”

[2] = test system: histidinol dehydrogenase from S. typhimurium; conditions: cited from earlier work
[3] = test system: histidinol dehydrogenase from wheat germ; conditions: cited from earlier work
[4] = substrate: NC(=O)c1ccc[n+]([C@@H]2O[C@H](COP(=O)([O-])OP(=O)(O)OC[C@H]3O[C@@H](n4cnc5c(N)ncnc54)[C@H](O)[C@@H]3O)[C@@H](O)[C@H]2O)c1; assay: Histidinol dehydrogenase enzyme assay (spectrophotometric, NAD+ reduction at 340 nm); assay type: biochemical, cabbage (Brassica oleracea); conditions: other: standard assay conditions; pH 9.2; 30.0 °C
Method: as §1
as §1, with “absorbance” for “absorbence”, “spectrophotometer.” for “spectrophotomer.”, “pH9.2,” for “pH 9.2,”, “MnCl2,” for “MnCl ,”, “NAD +,” for “NAD+,”, “catalyzing” for “catalyzes”

[5] = substrate: N[C@H](CO)Cc1c[nH]cn1; assay: purified protein, by the assay type; conditions: other: standard assay conditions; pH 9.2; 30.0 °C
[6] = reaction buffer 150 mM Gly/NaOH, pH9.2

Row | Molecule | Relative Activity [1] [%] | influence of divalent metal ion on the enzyme reaction (in words) [1, 6] | also measured
1 | [Ba+2] [Ba^2+] | 65 | caused inhibition | –
2 | [Ca+2] [Ca^2+] | 36 | caused inhibition | –
3 | [Cu+2] [Cu^2+] | 24 | caused inhibition | –
4 | N[C@H](CO)Cc1c[nH]cn1 [L-histidinol] | – | – | Km ([2]; read-out: Km of the pure enzyme from S. typhimurium for L-histidinol, pure enzyme): 16 µM; Km ([3]; read-out: Km of the partially purified enzyme from wheat germ for L-histidinol): 8.8 µM
5 | [Mg+2] [Mg^2+] | 54 | caused inhibition | –
6 | [Mn+2] [Mn^2+] | 126 | stimulation of the enzyme activity | stimulation of the reaction compared to control without any divalent metal ion [1, 6]: 26%; effect of metal ion on the reaction catalyzed by the S. typhimurium enzyme (in words) [2]: stimulated
7 | NC(=O)c1ccc[n+]([C@@H]2O[C@H](COP(=O)([O-])OP(=O)(O)OC[C@H]3O[C@@H](n4cnc5c(N)ncnc54)[C@H](O)[C@@H]3O)[C@@H](O)[C@H]2O)c1 [NAD+] | – | – | Km ([2]; read-out: Km of the enzyme from S. typhimurium for NAD+): 1000 µM; Km ([3]; partially purified enzyme, read-out: Km of the enzyme from wheat germ for NAD+): 140 µM
8 | [Ni+2] [Ni^2+] | 46 | caused inhibition | –
9 | [Zn+2] [Zn^2+] | 34 | caused inhibition | –
10 | B1 | – | – | Km [4]: 42 µM; Km [5]: 15.5 µM
